Experimental data as given in patent US20230395193A1 (priority 2020, published 2023).

Experiments:
canine coronavirus = conditions: previous study (Amici et al. 2006); cited from earlier work
SARS-CoV-2 [1] = format: cell-based
SARS-CoV-1 = conditions: cited from earlier work
[2] = tested on: SARS-CoV-1, MERS-CoV and SARS-CoV-2 proteins in HEK293T cells; set-up: species or system human
SARS-CoV-2 [3] = format: cell-based; remark: listed apart in the source
SARS-CoV-1 (Urbani) = format: cell-based

| Compound | Efficacy against canine coronavirus in vivo (in words) (canine coronavirus) | Inhibition of SARS-CoV-2 in vitro (in words) (SARS-CoV-2 [1]) | Inhibition of SARS-CoV-1 in vitro (in words) (SARS-CoV-1) | MIST_MERS [2] | MIST_SARS1 [2] | MIST_SARS2 [2] | Saint_MERS [2] | Saint_SARS1 [2] | Saint_SARS2 [2] | Antiviral activity against SARS-CoV-2 (in words) (SARS-CoV-2 [3]) | Antiviral activity against SARS-CoV-1 (in words) (SARS-CoV-1 (Urbani)) |
| --- | --- | --- | --- | --- | --- | --- | --- | --- | --- | --- | --- |
| COc1ccc2c(c1)c(CC(=O)O)c(C)n2C(=O)c1ccc(Cl)cc1 [indomethacin] | showed efficacy | did not inhibit SARS-CoV-2 in vitro at reasonable antiviral concentrations | similarly high levels of the drug were needed for inhibition | – | – | – | – | – | – | – | – |
| M-Q96HW7 | – | – | – | 0 | 0.8124 | 0.9433 | 0 | 0.33 | 0.65 | – | – |
| M-Q9NVH2 | – | – | – | 0 | 0.8943 | 0.8082 | 0 | 0.97 | 0.64 | – | – |
| E-Q9UBS3 | – | – | – | 0.9729 | 0 | 0 | 0.98 | 0 | 0 | – | – |
| M-Q8TEM1 | – | – | – | 0.7258 | 0.02986 | 0 | 1 | 0 | 0 | – | – |
| CCCCc1oc2ccccc2c1C(=O)c1cc(I)c(OCCN(CC)CC)c(I)c1 [amiodarone] | – | – | – | – | – | – | – | – | – | inhibited | inhibited |
| E-Q9ULP9 | – | – | – | 0 | 0.9165 | 0 | 0 | 0.97 | 0 | – | – |
| E-Q8WVM8 | – | – | – | 0.7214 | 0.3063 | 0 | 0.95 | 0 | 0 | – | – |
